From patent US20240252546A1, “NEURITE OUTGROWTH PROMOTION KIT AND USE THEREFOR” (KEIO UNIVERSITY, priority 2021, published 2024)

What was measured:
Assay type in all cases: cell-based, human
[1] = tested on: nerve cells induced from neurospheres derived from 201B7 cells; test: Neurite outgrowth of nerve cells differentiated from γ-secretase inhibitor-treated neurospheres (Experimental Example 1); settings: for neurite outgrowth, Tau protein immunostaining / neurite outgrowth (length of the neurite), βIII-tubulin immunostaining: 201B7 neurospheres cultured 24 hours with inhibitor (10 μM DAPT, 1 μM Compound 34), differentiated 14 days; for neurite outgrowth (length of the neurite), βIII-tubulin immunostaining: vs control and other γ-secretase inhibitors
Text: Various γ-secretase inhibitors were allowed to act on neurospheres derived from human iPS cells. Subsequently, each neurosphere was induced to differentiate into nerve cells, and the neurite outgrowth was examined. The following inhibitors were used as γ-secretase inhibitors: DAPT (CAS Number: 208255-80-5), Compound 34 (CAS Number: 564462-36-8), L-685,458 (CAS Number: 292632-98-5), LY411575 (CAS number: 209984-57-6), Sulindac (CAS number: 38194-50-2, which is also an anti-inflammatory drug), and Compound E (CAS number: 209986-17-4).
First, 201B7 cells, which are cells of a human iPS cell line, were differentiated into neurospheres. 3 μM SB431542 (Tocris Bioscience, catalog number: “301836-41-9”) and 150 nM LDN193189 (StemRD Inc., catalog number: “1062368-24-4”) were added to a culture medium of 201B7 cells, and the cells were treated for 6 days.
Subsequently, the cells were dissociated and seeded in a cell culture dish (product name: “ultralow-attachment culture dish”, Corning Incorporated) at a cell density of 1× 10^5 cells/mL in a nerve induction medium, and then cultured for 6 days in a hypoxic and moist environment (4% O2 and 5% CO2) to carry out differentiation into neurospheres.
The culture medium used as the nerve induction medium was a culture medium obtained by adding a 2% B27 supplement (without vitamin A, Thermo Fisher Scientific, Inc., catalog number: “17504-044”), 20 ng/ml of FGF2 (PeproTech, Inc.), 10 μM Y27632 (Sigma-Aldrich Co., LLC, catalog number: “146986-50-7”), 1 μM retinoic acid (RA, Sigma-Aldrich Co., LLC, catalog number: “R2625-1G”), 3 μM CHIR 99021 (ReproCELL Inc., catalog number: “04-0004”), and 10 μM SB431542 (Calbiochem, catalog number: “301836-41-9”), to an MHM medium of which the composition is shown in Table 1 below.
Subsequently, the formed neurospheres were dissociated into single cells, the single cells were passaged in a modified nerve induction medium and cultured for 6 days in a hypoxic environment (4% O2). The culture medium used as the modified nerve induction medium was a culture medium obtained by adding a 2% B27 supplement (without vitamin A, catalog number: “17504-044”, Thermo Fisher Scientific, Inc.), 20 ng/ml of FGF2 (PeproTech, Inc.), 10 μM Y27632 (catalog number: “146986-50-7”, Sigma-Aldrich Co., LLC), and 1 μM retinoic acid (RA, catalog number: “R2625-1G”, Sigma-Aldrich Co., LLC), to an MHM medium of which the composition is shown in Table 1 above.
Subsequently, neurospheres were cultured for 24 hours in the presence of each γ-secretase inhibitor. Each inhibitor was added to a culture medium of the neurosphere so that the final concentration was 10 μM for DAPT, 1 μM for Compound 34, 10 μM for L-685,458, 10 μM for LY411575, 10 μM for Sulindac, and 5 μM for Compound E. In addition, a control group cultured in the absence of a γ-secretase inhibitor was also prepared.
Subsequently, each neurosphere was seeded on a 48-well chamber slide (IWAKI & CO., LTD.) coated with poly-L-ornithine/fibronectin, cultured for 14 days in a culture medium containing no growth factor at 37° C. in an environment of 95% air and 5% CO2, and differentiated into nerve cells.
Subsequently, each of the obtained nerve cells was fixed with 4% paraformaldehyde in 0.1 M PBS, and each of βIII-tubulin, which is a nerve cell marker, and the Tau protein, which is frequently distributed in axons, was immunostained, and the length of the neurite was measured.
FIG. 2 is a graph in which the results of FIGS. 1(a) to 1(g) are quantified. […]

GADD45G = test: Expression level of GADD45G in treated neurospheres by RNA-seq (Experimental Example 2); settings: vs control
Description: Neurospheres derived from 201B7 cells, which are cells of a human iPS cell line, were prepared in the same manner as in Experimental Example 1.
In addition, neurospheres derived from 414C2 cells, which are cells of a human iPS cell line, were prepared according to the following method. First, 414C2 cells were subjected to adhesion culture for 12 days together with fibroblasts derived from a mouse embryo. Subsequently, the cells were subjected to suspension culture for 30 days to form a germ layer body. Subsequently, the aggregated cells were dissociated, cultured in a culture medium obtained by adding 20 ng/ml of FGF2 (PeproTech, Inc.) to an MHM medium of which the composition is shown in Table 1 above, and differentiated into neurospheres.
Subsequently, each neurosphere derived from iPS cells was treated with each of DAPT and Compound 34. Subsequently, one neurosphere having a diameter of about 100 μm was selected from the neurospheres in each group and subjected to an RNA-seq analysis.
FIG. 3 is a graph showing the results obtained by treating the neurosphere derived from 201B7 cells with each of DAPT and Compound 34, carrying out the RNA-seq analysis, and quantifying the expression level of GADD45G based on transcriptome data. In FIG. 3, “Ctl” indicates the result obtained from the control, “DAPT” indicates the result obtained by the DAPT treatment, and “C. 34” indicates the result obtained by Compound 34 treatment.

phosphorylated CDC25B = test: Immunostaining of phosphorylated CDC25B in treated neurospheres (Experimental Example 4); settings: 201B7 neurospheres; 10 μM DAPT, 1 μM Compound 34, 24 hours; vs control
Description: Neurospheres derived from 201B7 cells were treated with various γ-secretase inhibitors in the same manner as in Experimental Example 1. As the γ-secretase inhibitor, DAPT, Compound 34, L-685,458, LY411575, Sulindac, and Compound E were used at the same concentrations as in Experimental Example 1. Subsequently, each neurosphere was fixed with paraformaldehyde and subjected to immunostaining of phosphorylated CDC25B.
FIG. 8 is a graph showing the results obtained by quantifying the amount of the phosphorylated CDC25B in the neurosphere which had been treated with each of the γ-secretase inhibitors.

[2] = neurosphere derived from 201B7 cells
[3] = neurosphere derived from 414C2 cells

SMILES	neurite outgrowth, Tau protein immunostaining [1]	neurite outgrowth (length of the neurite), βIII-tubulin immunostaining [1]	expression of GADD45G (GADD45G; [2])	expression of GADD45G (GADD45G; [3])	amount of phosphorylated CDC25B in the neurosphere (phosphorylated CDC25B)	concentration at which the neurite outgrowth-promoting effect is obtained ([1]; compared with DAPT)
C[C@H](NC(=O)Cc1cc(F)cc(F)c1)C(=O)N[C@H](C(=O)OC(C)(C)C)c1ccccc1 [DAPT]	particularly promoted	particularly promoted	significantly increased	significantly increased	significantly increased	
O=C1Nc2ccccc2C(c2ccccc2)=N[C@@H]1NC(=O)[C@H](c1ccc(F)cc1)[C@@H](CO)c1ccc(F)c(F)c1 [Compound 34]	particularly promoted	particularly promoted	significantly increased	significantly increased	significantly increased	low concentration as compared with DAPT
